Read-outs that look alike come from different tables or passages of the source.
Assays:
p38 kinase = biological target: T1, p38 kinase (Homo sapiens, UniProt Q16539); test: p38 Kinase Assay; format: biochemical
T1 construct: GST (N); made in house; host or cells: E. coli

[1] = tested on: TNF release from human peripheral blood mononuclear cells (PBMNC); test: Cell Based Assay for Cytokines Production in PBMNC (TNF release after LPS); conditions: PBMC, read-out: TNF/PBMNC (inhibition of TNF release from human PBMNC following stimulation with LPS, IC50)
Procedure: Cell Based Assay for Cytokines Production in PBMNC
Human peripheral blood mononuclear cells were isolated from heparinized blood by LSM (Organon Teknika) from volunteer donors. Purified human peripheral blood mononuclear cells were then suspended at a concentration of 2×10^6 cells/ml in RPMI 1640 medium supplemented with 10% heat-inactivated FBS and 1% antibiotics. Aliquots of 100 μl (2×10^5 cells) were added to 96-well microliter plates. Test compounds at […] dose ranges (final-DMSO concentration in culture medium was 0.1%) were then added to the cells for 10–15 minutes before the addition of lipopolysaccharide (1 ng/ml). After incubation at 37° C. in a 5% CO2 incubator for 18–20 h, cell free supernatants were collected by centrifugation at 800 g. The supernatant was then assayed for the amount of TNFα and IL-1β by using Quantikine immunoassay kits developed by R&D Systems (Minneapolis, Minn.).

[2] = tested on: serum TNFα elevation in mice treated with lipopolysaccharide (LPS); test: Murine LPS-Stimulated Serum TNF Inhibition; format: in vivo; conditions: Mus musculus, 1.5 h, dose 30 mpk, read-out: % inh. (dose): % inhibition of murine TNF production in mice following an LPS challenge
Procedure: Murine LPS—Stimulated Serum TNF Inhibition Protocol
The potency of compounds of the invention as inhibitors of serum TNFα elevation in mice treated with lipopolysaccharide (LPS) was determined as follows; a) for subcutaneous (s.c.) administration, test compound was dissolved in DMSO and added to a mixture of 0.9% sodium chloride solution and 30% Trappsol HPB-20 (Cyclodextrin Technology Development Inc., Gainesville, Fla. USA) for a final DMSO concentration of 1%. The dosing solution was sonicated briefly and 0.2 mL was injected subcutaneously 10 min prior to LPS injection; b) for per oral (p.o.) administration, test compounds were formulated in 0.2 mL of PBS and 0.1% Tween 80 and given orally via gavage 10 min prior to LPS administration.
C3/hen female mice were injected intraperitoneally with 200 μg/kg LPS (Escherichia coil, Serotype 0111:B4, Sigma Chemical Co, St. Louis, Mo.) in PBS and sacrificed 90 min later by CO2 asphyxiation. Blood was immediately taken from the caudal vena cava and plasma prepared and frozen at −80° C. Plasma concentrations of TNF were measured by ELISA (Genzyme Co., Cambridge Mass.).

[3] = Cell Based Efficacy (MTT Assay), cytotoxicity toward HFF; conditions: human, HFF cells (human foreskin fibroblasts)
Procedure: Cell Based Efficacy (MTT Assay)
The potency of compounds of the invention are tested for their ability to inhibit cell proliferation and cell viability. The metabolic conversion of 3-(4,5-dimethylthiazol-2-yl)-2,5-diphenyltetrazolium bromide (MTT, Sigma #M2128) to a reduced form was a commonly used measure of cellular viability. Following was the procedure:
Cells are maintained in 75 cm^2 tissue culture flasks until ready for use. The cells are grown and plated for the assay in Dulbecco's modified Eagle's media containing 10% fetal bovine serum. For example, the following cell lines can be used: a) human foreskin fibroblasts (HFF), b) HT29 (human colon carcinoma cell line), c) MDA-MB468 (human breast carcinoma cell line), d) RKO (human colon adenocarcinoma cell line), e) SW620 (human colon carcinoma cell line), f) A549 (human lung carcinoma cell line), and g) MIA PACA (human pancreatic carcinoma cell line). Cells are maintained at 37° C. in 10% CO2, 90% humidified air. Cells are plated in 96-well tissue culture plates at the densities listed below (Table 6). 100 μL of cell suspension was added to each well of the 96-well plate except the top row of the plate which contains no cells and serves as a reference for the spectrophotometer.
Cells are incubated overnight in Dulbecco's modified Eagle's media containing 10% fetal bovine serum at 37° C. in 10% CO2, 90% humidified air prior to dosing. Cells are dosed in 10 sequential 3-fold dilutions starting at 30 μM depending upon the solubility of the compound. Compounds with solubilities of less than 30 μM are dosed at the highest soluble concentration. Stock solutions of compounds are made in 100% dimethyl sulfoxide (DMSO). Stock solutions are diluted in Dulbecco's modified Eagle's media containing 100 ug/mL gentamicin and 0.3 to 0.6% DMSO at the twice the highest concentration to be placed on the cells. If compounds have been dissolved in DMSO the final concentration of DMSO on the cells was kept below 0.3%. 3-fold serial dilutions are performed on each compound to prepare 10 concentrations of the compound for dosing. 100 μL of diluted compound was added to the 100 μL of media currently on the dish. For each concentration of compound, 2–4 replicate wells are prepared.
Cells are returned to incubator and allowed to proliferate in the presence of compound for 72 h before addition of MTT. MTT was prepared in phosphate buffered saline (Irvine Scientific #9240) at a concentration of 2 mg/mL. 50 μL per well of MTT solution was added to the 200 μL of media to yield a final concentration of 0.4 mg/mL and plates are returned to the incubator for 4 h. After 4 h incubation the media, compound and MTT mixture was aspirated from the plates and 100 μL of 100% DMSO was added to each well in addition to 25 uL of Sorenson's Buffer (0.1M glycine, 0.1M NaCl, pH 10.5). Quantitation of metabolic reduction of MTT in each plate was performed by reading optical density at 570 nm wavelength on a Molecular Devices UV max microplate reader. Growth inhibition curves and 50% inhibitory concentrations are determined using Microsoft Excel.

T1 sequence (Q16539 whole entry): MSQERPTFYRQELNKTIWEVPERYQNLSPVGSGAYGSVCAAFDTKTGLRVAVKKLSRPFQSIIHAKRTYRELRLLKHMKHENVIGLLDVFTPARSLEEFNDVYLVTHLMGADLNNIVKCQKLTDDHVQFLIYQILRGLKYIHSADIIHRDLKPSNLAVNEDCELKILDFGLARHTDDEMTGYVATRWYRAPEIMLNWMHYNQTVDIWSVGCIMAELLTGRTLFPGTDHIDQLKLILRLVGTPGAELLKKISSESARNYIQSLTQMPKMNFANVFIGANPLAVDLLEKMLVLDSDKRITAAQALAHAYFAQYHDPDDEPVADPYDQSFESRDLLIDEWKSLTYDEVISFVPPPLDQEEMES

IC50 (p38 kinase; Table 7, compounds wherein Z is CH, read-out: P38 kinase (inhibition of p38 kinase, IC50)) | IC50 ([1]; Table 7, LPS stimulation) | IC50 (p38 kinase; Table 8, compounds wherein Z is N, read-out: p38 kinase (inhibition of p38 kinase, IC50)) | IC50 ([1]; Table 8, LPS stimulation) | Compound | inhibition in vivo at 30 mg/kg ([2]; Table 7, LPS challenge) | IC50 at 72 h ([3]; Table 7, HFF cell line) | inhibition in vivo at 30 mg/kg ([2]; Table 8, LPS challenge) | IC50 at 72 h ([3]; Table 8, HFF cell line)
< 500 nM | < 500 nM |  |  | OCCCNc1cc(-c2c(-c3ccc(F)cc3)nn3ccccc23)ccn1 [Example 30, 3-(4-[2-(4-Fluorophenyl)pyrazolo[1,5-a]pyridin-3-yl]-2-pyridinylamino)-1-propanol] | 45% | > 50000 nM |  | 
 |  | 500 to 5000 nM | 500 to 5000 nM | Fc1ccc(-c2nn3ccccc3c2-c2ccncn2)cc1 [Example 56, 2-(4-Fluorophenyl)-3-(4-pyrimidinyl)-pyrazolo[1,5-a]pyridine] |  |  | 67% | > 50000 nM
